Experimental data from patent US9956228B2, “Method of treating acute myeloid leukemia and/or acute lymphoblastic leukemia using thienotriazolodiazepine compounds” (ONCOETHIX GMBH, priority 2014, dated 2018).

Experiments:
[1] = phase Ib dose-finding study, population pharmacokinetics; format: in vivo, human
Experimental: An oncology phase Ib trial of compound (1-1) was conducted by the inventors with the primary objective of investigating escalation of the dose of compound (1-1) administered to patients with acute leukemia or other hematologic malignancies. The study enrolled patients with acute leukemia or other hematologic malignancies. The patients received several active dose levels of compound (1-1) ranging from 10 mg to 160 mg according to different dosing schedules. Blood samples from 7 time points were collected from each patient over 24 hours post-administration on Day 1 for leukemia patients (“complete PK”) and 4 blood samples were collected from each patient over 8 hours post-administration for patients with other hematologic malignancies (“limited PK”). compound (1-1) plasma concentrations were measured on the basis of the blood samples using validated ultra performance liquid chromatography with tandem mass spectrometry detection with a concentration range 1-250 ng/mL. Analyses and population pharmacokinetics (PPK) modeling were performed with the nonlinear mixed effect modeling software program Monolix version 4.3. Pharmacokinetic Parameters, including absorption constant (Ka); apparent distribution volume (V/F), apparent clearance (CL/F) and lean body mass (LBM; calculated calculated considering patient sex, weight and height) were calculated.
85 patients enrolled in the phase Ib trial of compound (1-1) and were treated from January 2013 to August 2014. The patients were randomized to […]: 10 mg, 20 mg, 40 mg, 80 mg, 120 mg and 160 mg once a day dosing (QD); and 40 mg twice a day dosing (BID). Among them, 81 patients with 630 plasma concentrations (607+23 BLQ) were evaluable for PK assessment. A 1-compartment open model adequately described the total compound (1-1) concentration-time curve. […] In the PPK study, the best simulation model was obtained when LBM was considered in the analysis. A correlation between CL/F and V/F was also observed for compound (1-1).

CMYC [2] = experiment: CMYC modulation (Western blot, qRT-PCR) in sensitive cell lines HL60 and Jurkat; format: cell-based, human; details: 500 nM
Experimental: (§1) Five established human cell lines from acute and chronic acute myeloid leukemia (HL-60, U937, K562) and acute lymphoblastic leukemia (Jurkat, MOLT-3) were used. […] For cellular PK studies, cells were seeded at 2·10^6 cells/ml and exposed to 500 nM compound 1-1 for 0, 5, 15, 30, 60, 120 and 360 minutes. At each time point, compound 1-1 extracellular and intracellular concentrations were analyzed in cell supernatant and pellets respectively, using an Ultra Performance Liquid Chromatography with tandem Mass Spectrometry (concentration range 1-250 ng/mL). Experiments were performed in quadruplicate. In addition, in cell pellets protein modulation was analyzed by Western blot using commercial antibodies and qRT-PCR was performed using Fast SYBR Green on a StepOnePlus RT-PCR System.

[3] = system: other cell lines (K-562, NALM-1, CCRF-CEM, MOLT-3/-4); experiment: MTT assay after 72 hours, other cell lines; format: cell-based; details: Homo sapiens, 72 h exposure
Experimental: (§2) Protein was analyzed by Western blot and qRT-PCR was performed with Fast SYBR Green on a StepOnePlus Real-Time PCR System. […] Combination Index (CI) was determined using Chou & Talalay analysis; CI<1 reflects synergy, CI=1 additivity and CI>1 reflects antagonism.
(§3) Four established human cell lines derived from acute (HL60, U937) or chronic (K562) myeloid leukemia cells, and acute lymphoblastic leukemia cells (Jurkat) were treated with increasing doses of compound (1-1). MTT assays were performed after 72 hours exposure. GI50 and Emax values were calculated with the equation for sigmoidal dose response using Prism 5.00 and cell lines were classified as sensitive or resistant.
(§4) Five established human cell lines from acute and chronic acute myeloid leukemia (HL-60, U937, K562) and acute lymphoblastic leukemia (Jurkat, MOLT-3) were used. […] At each time point, compound 1-1 extracellular and intracellular concentrations were analyzed in cell supernatant and pellets respectively, using an Ultra Performance Liquid Chromatography with tandem Mass Spectrometry (concentration range 1-250 ng/mL). […] In addition, in cell pellets protein modulation was analyzed by Western blot using commercial antibodies and qRT-PCR was performed using Fast SYBR Green on a StepOnePlus RT-PCR System.

[4] = system: HL-60, U937, K562, Jurkat, MOLT-3; experiment: cellular PK: extracellular and intracellular concentrations by UPLC-MS/MS; format: in vitro ADME, human; details: 500 nM
Experimental: as §1

HL60, U937 and Jurkat = experiment: MTT assay after 72 hours, sensitive cell lines; format: cell-based; details: Homo sapiens, 72 h exposure
Experimental: as §2, §3, §4

CMYC [5] = experiment: CMYC modulation (Western blot, qRT-PCR) in resistant cell line K562; format: cell-based, human; details: K562, 500 nM
Experimental: as §1

HDAC8 = target: T1, HDAC8 (Homo sapiens, UniProt Q9BY41); details: cited from earlier work
T1 sequence (Q9BY41 1-377): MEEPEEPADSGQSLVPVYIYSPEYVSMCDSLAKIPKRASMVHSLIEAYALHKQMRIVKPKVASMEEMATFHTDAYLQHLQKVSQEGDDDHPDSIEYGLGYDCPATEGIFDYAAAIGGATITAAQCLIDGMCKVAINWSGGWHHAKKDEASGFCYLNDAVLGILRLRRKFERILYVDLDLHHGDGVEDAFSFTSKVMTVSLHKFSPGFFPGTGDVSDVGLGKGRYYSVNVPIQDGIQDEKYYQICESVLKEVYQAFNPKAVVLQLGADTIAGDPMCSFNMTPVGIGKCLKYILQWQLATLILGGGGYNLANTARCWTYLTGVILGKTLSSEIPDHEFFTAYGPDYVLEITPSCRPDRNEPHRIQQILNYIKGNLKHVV

[6] = patients, PPK 1-compartment model
[7] = sensitive and resistant leukemic cell lines

Structure (SMILES)	half-life ([1]; human, plasma, oral, all patients, read-out: mean elimination half-life (converted)) [h]	Tmax ([1]; human, plasma, oral, patients) [h]	absorption constant Ka ([1]; patients, 10-160 mg oral, PPK 1-compartment model) [h⁻¹]	apparent clearance CL/F [1, 6] [L/h]	apparent distribution volume V/F [1, 6] [L]	CMYC protein and mRNA levels (CMYC [2])	GI50 [3] [µM]	intracellular concentration, mean [4, 7] [ng/106 cells]	intracellular concentration, range [4, 7]	time to cellular uptake [4, 7] [min]	extracellular levels ([4]; stable up to 6 h of incubation) [ng/mL]	GI50 (HL60, U937 and Jurkat) [µM]	exposure time after which CMYC mRNA levels downregulation was observed (CMYC [5]) [h]	IC50 (HDAC8) [µM]
Cc1sc2c(c1C)C(c1ccc(Cl)cc1)=N[C@@H](CC(=O)Nc1ccc(O)cc1)c1nnc(C)n1-2 [Compound (1-1), 2-[(6S)-4-(4-chlorophenyl)-2,3,9-trimethyl-6H-thienol[3,2-f]-[1,2,4]triazolo[4,3-a][1,4]diazepin-6-yl]-N-(4-hydroxyphenyl)acetamide dihydrate]	5.8	1 to 4	0.74	8.45	71.7	rapid downregulation	≥ 6	~15	3-23 ng·mL-1/106 cells	< 5	~200	0.23 to 0.384	2	–
Cc1cc(Cl)ccc1OCCCC(=O)NO [Droxinostat, 4-(4-Chloro-2-methylphenoxy)-N-hydroxybutanamide]	–	–	–	–	–	–	–	–	–	–	–	–	–	1.46
